Columns and labels:
Type in all cases: cell-based, Human
[1] = test system: Hedgehog signaling; assay: Luciferase reporter assay MCF7-GFP-GLI(luc); conditions: 50 μM, 2 and 5 days
Source text: Mitochondrial fusion and fission may also have an impact in signaling pathways that regulate stem cell proliferation and survival. […] A range of reporter MCF7-GFP cell lines were generated, including MCF7-GFP-GLI(luc), MCF7-GFP-Rbp/Jk(luc), MCF7-GFP-SMAD(luc) and MCF7-GFP-TCF/LEF(luc), to assess Hedgehog signaling, Notch signaling, TGFβ signaling, and Wnt signaling, respectively. […] The data is shown in the four data plots in FIG. 9.
LUCIFERASE ASSAY: The Cignal Lenti reporter assay (luc) was used to monitor the activity of several signalling pathways in MCF7-GFP cells as explained previously. Luciferase Assay System (E1501, Promega) was performed according to manufacturer's instructions. 1×10^4 MCF7 […] were seeded in black-walled 96 well plates. When cells were attached, drug treatments were added for 18, 48 hours and 5 days. After treatment, Luciferase Assay was performed according to manufacturer's instructions and light signal was acquired in the Xenogen VivoVision IVIS Lumina. Results were normalized by SRB staining of cells grown in 96-well plates in parallel.
SULFORHODAMINE B (SRB) ASSAY: SRB (S9012, Sigma) measures total biomass by staining cellular proteins. […] Absorbance was spectrophotometrically measured at 562 nm in a FluoStar Omega plate reader (BMG Labtech). […]

[2] = PrestoBlue viability assay; conditions: human, MCF7 breast cancer cells, read-out: reduction of MCF7 cell viability
Method: (§1) The inventors sought to evaluate whether mDIVI-1-induced inhibition of DRP1 has repercussion on the viability of MCF7 cells. […] Similar results were obtained using the Bradford assay, which measures protein content, as an indicator of cell viability.
(§2) CELL CULTURE: Human MCF7 breast cancer cells were purchased from ATCC and maintained in complete media: DMEM (D6546, Sigma) supplemented with 10% fetal bovine serum (F7524, Sigma), 100 units/ml of penicillin, 100 μg/ml, streptomycin (P0781, Sigma) and 1% Glutamax (#35050087, Life Technologies). For all experiments, cells were incubated in a 5% CO2 atmosphere at 37° C.
(§3) PRESTOBLUE VIABILITY ASSAY: Cell viability was measured using the resazurin-based PrestoBlue reagent (A-13261, ThermoFisher Scientific). Briefly, 5×10^3 MCF7 cells were seeded into 96-well black plates. When cells were attached mDIVI-1 or vehicle were added to the cells. After 2 or 5 days, PrestoBlue reagent was added to the cells and incubated for 2 hours. Plates were finally read using a FluoStar Omega plate reader (BMG Labtech) at an excitation wavelength of 544 and an emission wavelength of 590 nm. Background measurements were subtracted from all values.

[3] = test system: MCF7 cells; assay: PrestoBlue viability assay; conditions: 10 μM, 48 hours
Method: as §1, §2, §3

[4] = test system: MCF7 cells; assay: Extracellular flux analysis (ECAR and OCR, XF96)
Method: Inhibition of mitochondrial fission by m-DIVI-1 or a derivative thereof also blocks the normal functioning of mitochondrial metabolism in CSCs. Indeed, it has been shown that a DRP1 mutant that inhibits mitochondrial fission increases glucose uptake and lactate production, and decreases ATP production. […] The extracellular acidification rate (ECAR) and the oxygen consumption rate (OCR) were measured using an XF96 Extracellular Flux Analyser, and FIGS. 5A, 5B, and 6A-6C show the data. Basal glycolysis, glycolytic capacity and glycolytic reserve were calculated after addition of glucose, oligomycin and 2-deoxyglucose (2DG) into the media. […] Thus, to measure basal respiration, ATP production, maximal respiration and spare respiratory capacity, oxygen consumption was also calculated after addition of oligomycin, FCCP and antimycin/rotenone into glucose-containing media. […] The OCR versus ECAR graph was also plotted to have an indication of the metabolic state of the cell. […] Thus, mDIVI-1-induced inhibition of mitochondrial fission functionally targets oxidative phosphorylation and also the glycolytic function of MCF7 cells, transforming them into cells with lower mitochondrial energetic needs.
EXTRACELLULAR FLUX […] AND BRADFORD ASSAY: Extracellular acidification rate (ECAR) and oxygen consumption rate (OCR) were measured in a XF96 Extracellular Flux Analyzer (Seahorse Biosciences). Briefly, 1×10^4 MCF7 cells per well were seeded in XF96 plates and incubated with complete medium. When cells were attached, mDIVI-1 and vehicle treatments were added. Six replicates were run for each condition. After 48 hours, un-buffered DMEM XF medium supplemented with 2 mM glutamine (pH 7.4) was added to the cells, and placed in a 37° C. CO2-free incubator for 1 hour. Ten mM glucose, 1 μM oligomycin and 100 mM 2-deoxyglucose (2-DG) were injected into the media at different time points and ECAR was measured. Likewise, ECAR and OCR were quantified using un-buffered DMEM XF medium supplemented with 2 mM glutamine, 2 mM sodium pyruvate and 10 mM glucose. One μM oligomycin, 0.9 μM FCCP and 1 μM rotenone and antimycin A were injected into the media at different time points and OCR and ECAR were measured. Cells were finally lysed with 0.1 M NaOH and protein lysate was subsequently stained with Quick Start™ Bradford 1× Dye Reagent (500-0205, BioRad) to normalise results. All parameters were calculated according to manufacturer.

SMILES: COc1cc(-n2c(S)nc3ccccc3c2=O)c(Cl)cc1Cl [mDIVI-1, 3-(2,4-Dichloro-5-methoxyphenyl)-2-sulfanyl-4(3H)-quinazolinone]
- Hedgehog/GLI pathway luciferase activity [1]: inhibition
- cytotoxicity at 5 days, 10 μM ([2]; 10 μM, five days): 20%
- cytotoxicity at 48 h, 50 μM ([2]; 50 μM, 48 hours): 20%
- cytotoxicity at 5 days, 50 μM ([2]; 50 μM, five days): > 65%
- cytotoxicity at 48 h, 100 μM ([2]; 100 μM, 48 hours): 20%
- cytotoxicity at 5 days, 100 μM ([2]; 100 μM, five days): 85%
- viability of MCF7 cells [3]: did not decrease
- basal glycolysis (ECAR) ([4]; 48 hours): did not have a significant effect
- glycolytic capacity (ECAR) ([4]; 48 hours): reduced
- glycolytic reserve (ECAR) ([4]; 48 hours): reduced
- oxygen consumption linked to ATP production ([4]; 48 hours): significantly reduced
- oxygen consumption linked to basal respiration ([4]; 48 hours): significantly reduced
- spare respiratory capacity ([4]; 48 hours, all mDIVI-1 concentrations): slightly increased
- oxygen consumption linked to maximal respiration ([4]; 48 hours, to a lesser extent, at higher concentrations): significantly reduced
- OCR/ECAR ratio ([4]; compared to vehicle): decreased dose-dependently

— patent publication US11559527B2 (priority 2017, dated 2023)
